Inhibition and IC50 data for 27 molecules are collected here from ChEMBL document CHEMBL1949563, “1,3,4-Thiadiazole derivatives as selective inhibitors of iNOS versus nNOS: Synthesis and structure-activity dependence” (Eur J Med Chem, 2012).

For assay [1], the target named is Nitric oxide synthase 1 (Homo sapiens) (UniProt P29475). The assay is described as follows: Inhibition of nNOS assessed as conversion of L-[3H]arginine to L-[3H]-citrulline at 50 uM after 30 mins by scintillation counting.
The target of assay [2] is T1, Nitric oxide synthase, inducible (Homo sapiens, UniProt P35228). In words: Inhibition of iNOS assessed as conversion of L-[3H]arginine to L-[3H]-citrulline at 50 uM after 30 mins by scintillation counting.
In assay [3] the target is T1, Nitric oxide synthase, inducible. The assay is described as follows: Inhibition of iNOS assessed as conversion of L-[3H]arginine to L-[3H]-citrulline after 30 mins by scintillation counting.

Sequence of Nitric oxide synthase 1 (Homo sapiens) (P29475 whole entry): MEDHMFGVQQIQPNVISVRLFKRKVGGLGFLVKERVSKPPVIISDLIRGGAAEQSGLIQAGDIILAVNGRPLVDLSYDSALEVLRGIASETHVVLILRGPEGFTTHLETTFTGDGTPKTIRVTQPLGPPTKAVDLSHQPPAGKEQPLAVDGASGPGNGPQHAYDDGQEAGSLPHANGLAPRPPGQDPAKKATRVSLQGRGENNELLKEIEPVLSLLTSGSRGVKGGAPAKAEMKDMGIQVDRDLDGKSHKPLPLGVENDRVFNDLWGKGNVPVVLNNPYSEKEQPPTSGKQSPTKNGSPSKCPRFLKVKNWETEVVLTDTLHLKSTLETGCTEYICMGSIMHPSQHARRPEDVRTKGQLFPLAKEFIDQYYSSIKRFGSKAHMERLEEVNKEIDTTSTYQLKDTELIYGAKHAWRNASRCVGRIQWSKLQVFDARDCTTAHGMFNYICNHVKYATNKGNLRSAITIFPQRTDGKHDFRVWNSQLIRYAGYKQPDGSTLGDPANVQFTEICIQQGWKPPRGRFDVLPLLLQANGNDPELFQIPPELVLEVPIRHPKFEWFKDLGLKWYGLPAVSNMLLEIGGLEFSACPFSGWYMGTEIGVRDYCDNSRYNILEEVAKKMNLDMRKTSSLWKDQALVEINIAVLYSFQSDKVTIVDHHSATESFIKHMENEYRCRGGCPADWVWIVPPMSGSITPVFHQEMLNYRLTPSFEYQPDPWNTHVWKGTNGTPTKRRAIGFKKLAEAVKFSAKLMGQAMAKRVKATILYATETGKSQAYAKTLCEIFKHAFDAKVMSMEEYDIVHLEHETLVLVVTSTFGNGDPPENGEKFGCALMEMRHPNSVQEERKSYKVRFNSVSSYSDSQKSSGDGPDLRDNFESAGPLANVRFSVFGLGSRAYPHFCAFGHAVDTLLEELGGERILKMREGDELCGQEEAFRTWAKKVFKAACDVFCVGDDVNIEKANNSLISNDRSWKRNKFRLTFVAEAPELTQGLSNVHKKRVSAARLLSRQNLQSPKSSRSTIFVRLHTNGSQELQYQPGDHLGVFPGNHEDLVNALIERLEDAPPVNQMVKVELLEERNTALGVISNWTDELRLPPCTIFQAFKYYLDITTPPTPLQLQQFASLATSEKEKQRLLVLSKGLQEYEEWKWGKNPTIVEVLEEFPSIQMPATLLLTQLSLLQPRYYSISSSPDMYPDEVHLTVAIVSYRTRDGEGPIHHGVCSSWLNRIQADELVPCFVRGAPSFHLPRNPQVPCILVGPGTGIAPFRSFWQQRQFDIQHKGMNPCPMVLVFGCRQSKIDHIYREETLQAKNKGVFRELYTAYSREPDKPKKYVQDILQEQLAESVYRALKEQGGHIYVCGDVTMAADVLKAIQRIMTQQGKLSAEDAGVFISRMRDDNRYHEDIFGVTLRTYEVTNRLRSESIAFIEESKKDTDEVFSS
T1 sequence (P35228 whole entry): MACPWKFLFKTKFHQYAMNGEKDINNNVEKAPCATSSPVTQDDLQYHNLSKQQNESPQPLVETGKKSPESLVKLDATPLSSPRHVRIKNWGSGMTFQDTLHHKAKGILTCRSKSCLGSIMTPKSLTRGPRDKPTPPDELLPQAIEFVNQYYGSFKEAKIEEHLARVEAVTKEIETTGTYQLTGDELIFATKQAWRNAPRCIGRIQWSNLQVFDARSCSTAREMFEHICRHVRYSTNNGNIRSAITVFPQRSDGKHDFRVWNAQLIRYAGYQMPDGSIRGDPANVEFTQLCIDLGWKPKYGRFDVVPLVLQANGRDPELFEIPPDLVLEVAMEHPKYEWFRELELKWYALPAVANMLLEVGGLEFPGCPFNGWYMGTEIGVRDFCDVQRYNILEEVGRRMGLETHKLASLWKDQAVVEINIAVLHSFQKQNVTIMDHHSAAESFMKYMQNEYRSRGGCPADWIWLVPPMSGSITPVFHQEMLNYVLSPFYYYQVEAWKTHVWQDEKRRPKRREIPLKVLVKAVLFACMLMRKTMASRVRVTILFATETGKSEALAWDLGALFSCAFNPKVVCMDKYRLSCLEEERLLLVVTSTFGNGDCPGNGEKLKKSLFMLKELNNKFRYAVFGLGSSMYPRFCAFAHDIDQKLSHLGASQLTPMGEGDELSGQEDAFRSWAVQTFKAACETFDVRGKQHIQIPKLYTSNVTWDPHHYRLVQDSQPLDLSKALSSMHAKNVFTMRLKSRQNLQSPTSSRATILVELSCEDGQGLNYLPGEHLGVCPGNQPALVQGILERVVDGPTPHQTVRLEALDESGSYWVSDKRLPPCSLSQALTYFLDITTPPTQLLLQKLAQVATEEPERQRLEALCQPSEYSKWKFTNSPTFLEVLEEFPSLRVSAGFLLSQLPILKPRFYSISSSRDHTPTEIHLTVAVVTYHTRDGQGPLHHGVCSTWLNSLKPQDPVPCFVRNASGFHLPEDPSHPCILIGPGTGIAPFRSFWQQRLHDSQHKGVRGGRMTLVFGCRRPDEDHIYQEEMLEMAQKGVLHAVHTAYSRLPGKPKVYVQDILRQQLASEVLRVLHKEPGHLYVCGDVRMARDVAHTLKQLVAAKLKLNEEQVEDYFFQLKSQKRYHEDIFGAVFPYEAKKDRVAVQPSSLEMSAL

The inhibition is the drop in the measured response relative to a control, in per cent. In the case of `CCC(=O)N1N=C(c2cc(Cl)ccc2N)SC1(C)C`, the inhibition in assay [1] came to 18.3%; in assay [2], 1.07%.

Regarding `CC1(C)SC(c2cc(Cl)ccc2N)=NN1C(=O)C1CCCC1`, the inhibition was 8.37% in assay [1] and 21.3% in assay [2].

Regarding `CCCC(=O)N1N=C(c2cc(Cl)ccc2N)SC1(C)C`, the inhibition was 27.7% in assay [1] and 66.2% in assay [2].

Turning to `CC1(C)SC(c2ccccc2N)=NN1C(=O)C1CCCC1`, the inhibition in assay [1] was determined as 9.34%; in assay [2], 42.1%.

On to `CC1(C)SC(c2cc(Cl)ccc2N)=NN1C(=O)C1CCCCC1`, for which the inhibition in assay [1] stood at 23.1%; in assay [2], 7.61%.

For `CCC(=O)N1N=C(c2ccccc2N)SC1(C)C`, the results for the inhibition in assay [1] and in assay [2] were 24.2% and 19.2%, respectively.

For the molecule `CCCCC(=O)N1N=C(c2cc(OC)ccc2N)SC1(C)C`, the inhibition in assay [1] turned out to be 14.6%; in assay [2], 101%.

What is called IC50 is the concentration needed to halve the response being measured. On to `COc1ccc(N)c(C2=NN(C(=O)C3CC3)C(C)(C)S2)c1`, for which the inhibition was found to be 9.95% in assay [1] and 90% in assay [2]. Further, the IC50 in assay [3] stood at 41 µM.

Turning to `CC(=O)N1N=C(c2ccccc2N)SC1(C)C`, the inhibition turned out to be 13.3% in assay [1] and 22.9% in assay [2].

`CCC(=O)N1N=C(c2cc(OC)ccc2N)SC1(C)C`: the values for the inhibition in assay [1] and in assay [2] were 8.85% and 73%, respectively.

For `CC1(C)SC(c2ccccc2N)=NN1C(=O)C1CCCCC1`, the inhibition in assay [1] worked out at 6.8%; in assay [2], 28%.

Regarding `COc1ccc(N)c(C2=NN(C(=O)C3CCCC3)C(C)(C)S2)c1`, the inhibition in assay [1] is 17.4%; in assay [2], 65%.

On to `COc1ccc(N)c(C2=NN(C(=O)c3ccccc3)C(C)(C)S2)c1`, for which the results for the inhibition in assay [1] and in assay [2] were 17.2% and 0%, respectively.

Consider `CCCC(=O)N1N=C(c2ccccc2N)SC1(C)C`, for which the inhibition was found to be 17.5% in assay [1] and 35.2% in assay [2].

Turning to `CCCCC(=O)N1N=C(c2cc(Cl)ccc2N)SC1(C)C`, the inhibition came to 38% in assay [1] and 12.6% in assay [2].

As for `CC1(C)SC(c2ccccc2N)=NN1C(=O)C1CC1`, the inhibition in assay [1] came out at 7.32%; in assay [2] it was 93%. Further, the half-maximal inhibitory concentration (IC50) in assay [3] was determined as 34 µM.

Turning to `CCCCC(=O)N1N=C(c2ccccc2N)SC1(C)C`, the inhibition in assay [1] stood at 38%; in assay [2] it was 39%.

As for `CC1(C)SC(c2ccccc2N)=NN1C(=O)C1CCC1`, the inhibition in assay [1] was 2.98%; in assay [2], 46.9%.

Regarding `CC1(C)SC(c2cc(Cl)ccc2N)=NN1C(=O)C1CC1`, the inhibition in assay [1] came to 21.9%; in assay [2] it was 23.2%.

`CCCC(=O)N1N=C(c2cc(OC)ccc2N)SC1(C)C`: the inhibition in assay [1] is 9.58%; in assay [2], 91.1%. Besides, the IC50 in assay [3] was 29.6 µM.

As to `COc1ccc(N)c(C2=NN(C(C)=O)C(C)(C)S2)c1`, the inhibition amounted to 43.3% in assay [1] and 77.1% in assay [2].

As for `CC1(C)SC(c2cc(Cl)ccc2N)=NN1C(=O)c1ccccc1`, the inhibition in assay [1] was determined as 23.6%; in assay [2] it was 20.8%.

For the molecule `COc1ccc(N)c(C2=NN(C(=O)C3CCCCC3)C(C)(C)S2)c1`, the values for the inhibition in assay [1] and in assay [2] were 11.3% and 100%, respectively. The IC50 in assay [3] was 21.9 µM.

Regarding `CC(=O)N1N=C(c2cc(Cl)ccc2N)SC1(C)C`, the inhibition was 22.5% in assay [1] and 72.8% in assay [2].

In the case of `COc1ccc(N)c(C2=NN(C(=O)C3CCC3)C(C)(C)S2)c1`, the figures for the inhibition in assay [1] and in assay [2] were 13.7% and 57.8%, respectively.

With `CC1(C)SC(c2ccccc2N)=NN1C(=O)c1ccccc1`, the results for the inhibition in assay [1] and in assay [2] were 42.4% and 39.8%, respectively.

As for `CC1(C)SC(c2cc(Cl)ccc2N)=NN1C(=O)C1CCC1`, the results for the inhibition in assay [1] and in assay [2] were 4.56% and -4.65%, respectively.
